Source: PubChem BioAssay AID838 (SRMLSC, 2007)
The source made the active and inactive calls. The rule behind the calls is not given here.

Biological target: Pantothenate synthetase (Mycobacterium tuberculosis (strain ATCC 25618 / H37Rv)) (UniProt P9WIL5)
Experiment: Biochemical confirmation of M. tuberculosis pantothenate synthetase inhibitors (AID 838)
Details: M. tuberculosis pantothenate synthetase enzyme inhibition; for inhibition: at 100 µM, stronger effect = higher value

Pantothenate synthetase (Mycobacterium tuberculosis (strain ATCC 25618 / H37Rv)), sequence (P9WIL5 whole entry, looked up): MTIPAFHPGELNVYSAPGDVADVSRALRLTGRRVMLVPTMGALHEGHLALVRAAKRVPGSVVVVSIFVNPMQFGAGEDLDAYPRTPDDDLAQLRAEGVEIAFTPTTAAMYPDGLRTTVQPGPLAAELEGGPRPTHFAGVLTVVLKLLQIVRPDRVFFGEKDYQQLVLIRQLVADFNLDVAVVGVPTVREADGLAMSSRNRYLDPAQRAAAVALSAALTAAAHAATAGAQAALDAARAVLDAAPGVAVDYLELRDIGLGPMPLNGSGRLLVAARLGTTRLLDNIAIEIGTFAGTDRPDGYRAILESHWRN

Structure (SMILES)	inhibition	IC50 [nM]
COc1cc(CN(C)C(=O)c2ccc(N3CCC(O)(c4cccc(C(F)(F)F)c4)CC3)nc2)cc(OC)c1OC	inactive	–
Cc1ccccc1Cn1cc(NC(=O)c2noc3c2CCCC3)cn1	inactive	–
Cc1cc(C(=O)N2CCc3[nH]cnc3C2c2ccccc2F)no1 (stereo not given)	inactive	–
CCN(Cc1ccncc1)CC1CCCN(C(=O)c2cc(C)on2)C1 (stereo not given)	inactive	–
CC(C)(C)C1CCc2onc(C(=O)Nc3cnn(Cc4cccc(I)c4)c3)c2C1 (stereo not given)	–	101
COc1cc(CN(C)C(=O)c2ccc(N3CCC(O)(Cc4ccccc4)CC3)nc2)cc(OC)c1OC	inactive	–
CC(C)(C)c1ccc2onc(C(=O)Nc3cnn(Cc4ccc(I)cc4)c3)c2c1	–	36300
CC(C)(C)C1CCc2onc(C(=O)Nc3cnn(Cc4ccccc4I)c3)c2C1 (stereo not given)	–	104
CC(C)(C)C1CCc2onc(C(=O)Nc3cnn(Cc4ccc(F)cc4F)c3)c2C1 (stereo not given)	–	128
O=C(Nc1cnn(Cc2ccc(F)cc2)c1)c1noc2ccc(-c3ccccc3)cc12	–	108000
Cc1ccccc1Cn1cc(NC(=O)c2cc(-c3cccs3)on2)cn1	inactive	–
Cc1cc(C(=O)N2CCCN(c3cc(-c4ccc5ccccc5c4)ncn3)CC2)no1	inactive	–
COc1cc(C(=O)Nc2cnn(Cc3cccc(I)c3)c2)cc(OC)c1OC	inactive	–
Cc1onc(-c2ccccc2Cl)c1C(=O)Nc1cnn(Cc2ccccc2)c1	inactive	–
Cc1cc(C(=O)N2CCCC(CN(C)Cc3ccc(Cl)cc3)C2)no1 (stereo not given)	inactive	–
Cc1noc(C)c1CN1C(=O)COc2cc(C(=O)NCc3ccc(C(F)(F)F)nc3)ccc21	inactive	–
CC(C)(C)c1ccc2onc(C(=O)Nc3cnn(Cc4cccc(F)c4)c3Cl)c2c1	inactive	–
Cc1cc(C(=O)N2CCc3[nH]cnc3C2c2ccc(F)cc2)no1 (stereo not given)	inactive	–
CCOc1ccc(Cn2cc(NC(=O)C(C)(C)n3cc([N+](=O)[O-])cn3)cn2)cc1OCC	inactive	–
COc1cc(CN(C)C(=O)c2ccc(N3CCc4ccccc4C3)nc2)cc(OC)c1OC	inactive	–
Cc1cccc(CN2C(=O)COc3cc(C(=O)N4CCN(Cc5ccccc5)CC4)ccc32)c1	inactive	–
Cc1cc(C(=O)NCCc2nc(C(=O)NCCN(C)C)cs2)no1	inactive	–
Cc1cc(C(=O)N2CCCC(CN3CCN(c4cnccn4)CC3)C2)no1 (stereo not given)	inactive	–
CCCN(CC1CC1)CC1CCCN(C(=O)c2cc(C)on2)C1 (stereo not given)	inactive	–
CC(C)(C)C1CCc2onc(C(=O)Nc3cnn(Cc4ccc(Cl)cc4Cl)c3)c2C1 (stereo not given)	–	111

Structure (SMILES)	inhibition	IC50 [nM]
Cc1ccccc1Cn1cc(NC(=O)c2cc(C3CC3)on2)cn1	inactive	–
O=C(Nc1cnn(Cc2ccc(F)cc2)c1)c1noc2c1CCCC2	inactive	–
O=C(Cn1nc(C2CC2)cc1C(F)F)Nc1cnn(Cc2c(F)cc(F)c(F)c2F)c1	inactive	–
COc1ccc(-c2cc(C(=O)Nc3cnn(Cc4ccccc4C)c3)no2)cc1	–	47700
CC(C)(C)C1CCc2onc(C(=O)Nc3cnn(Cc4ccccc4C(F)(F)F)c3)c2C1 (stereo not given)	–	274
Cc1ccccc1Cn1cc(NC(=O)c2cc(-c3ccco3)on2)cn1	inactive	–
COc1cccc(-c2cc(C(=O)Nc3cnn(Cc4ccccc4C)c3)no2)c1	inactive	–
CCCc1cc(C(=O)Nc2cnn(Cc3ccc(F)cc3)c2)no1	inactive	–
COCCN(CC1CCCN(C(=O)c2cc(C)on2)C1)C(C)C (stereo not given)	inactive	–
Cc1cc(C(=O)N2CCCC(CN3CCC(C(F)(F)F)CC3)C2)no1 (stereo not given)	inactive	–
O=C(Nc1cnn(Cc2ccc(Cl)cc2Cl)c1)c1noc2c1CCCC2	inactive	–
Cc1cc(C(=O)N2CCCC(CN3CCc4ccccc4C3)C2)no1 (stereo not given)	inactive	–
COc1cccc(C2c3nc[nH]c3CCN2C(=O)c2cc(C)on2)c1 (stereo not given)	inactive	–
O=C(Nc1cnn(Cc2ccc(F)cc2)c1)c1cc(C2CC2)on1	inactive	–
O=C(Nc1cnn(Cc2ccc(F)cc2)c1)c1noc2c1CC(c1ccccc1)CC2 (stereo not given)	inactive	–
CC(C)(C)c1ccc2onc(C(=O)Nc3cnn(Cc4cccc(F)c4)c3)c2c1	–	640
Cc1cc(C(=O)N2CCc3[nH]cnc3C2c2ccc(-n3cncn3)cc2)no1 (stereo not given)	inactive	–
CCc1ccc(C2c3nc[nH]c3CCN2C(=O)c2cc(C)on2)cc1 (stereo not given)	inactive	–
Cc1cc(C(=O)N2CCCN(c3cc(-c4cc(F)ccc4C)ncn3)CC2)no1	inactive	–
Cc1ccccc1Cn1cc(NC(=O)c2noc3c2CC(C(C)(C)C)CC3)cn1 (stereo not given)	–	150
CC(C)(C)c1ccc2onc(C(=O)Nc3cnn(Cc4ccc(F)cc4)c3)c2c1	–	351
O=C(Nc1cnn(Cc2ccc(Cl)cc2Cl)c1)c1noc2c1CCCCC2	inactive	–
CC(C)(C)C1CCc2onc(C(=O)Nc3cnn(Cc4ccc(I)cc4)c3)c2C1 (stereo not given)	–	68
O=C(Nc1cnn(Cc2ccc(F)cc2)c1)c1noc2ccccc12	inactive	–
COc1ccccc1-c1cc(C(=O)Nc2cnn(Cc3ccccc3C)c2)no1	inactive	–
